{"source": "patent EP1618800A1", "about": "“Active compositions comprising lycopene, cytidin and fatty acids” (Cognis IP Management GmbH, priority 2004, dated 2006)", "type_in_all_cases": "biochemical", "key": {"[1]": {"experiment": "DPPH Test (radical trapping, photometric at 513 nm)", "settings": "Batch A; sample concentration 0.3 % b.w.; average of 2 measurements", "text": "In a first series of tests, the effectiveness of the extracts against oxidative stress was investigated by chemical methods. A commercially available extract of tomatoes, CLA (Tonalin® CLA, Cognis) and their mixtures were used in concentrations of 0.3 % b.w. The first test substrate selected was diphenyl picryl hydrazyl (DPPH), a purple-red coloured stable radical which changes into its colourless leuco derivative on contact with radical trappers. The change of colour was followed photometrically at 513 nm. The test results are set out in Table 1 (\"DPPH Test\") where the inhibition of DPPH is shown in % absolute."}, "[2]": {"experiment": "Salicylic Acid Test (hydroxylation of salicylic acid by hydroxyl radicals, 490 nm)", "settings": "sample concentration 0.3 % b.w., average of 2 measurements", "procedure": "In a second test, the hydroxylation of salicylic acid by hydroxyl radicals (from the reaction of hydrogen peroxide with iron(III) ions and EDTA) was investigated as a reference system. This reaction can also be photometrically investigated because the hydroxylation product is reddish in colour. The influence of the extracts on the formation of hydroxysalicylic acid was measured at an optical density of 490 nm. The results are also set out in Table 1 where inhibition is again shown in % absolute (\"Salicylic Acid Test\"). Table 1 Radical-trapping properties in % absolute (results are averages of 2 measurements)"}, "[3]": {"experiment": "Deoxyribose oxidation by hydroxyl radicals (thiobarbituric acid, 532 nm), with or without EDTA", "settings": "sample concentration 0.3 % b.w., average of 2 measurements", "procedure": "In the following test, deoxyribose was used as the test substance. In the presence of hydroxyl radicals formed from H2O2 in the presence of Fe^2+ and EDTA, deoxyribose is oxidized. A pink-coloured substance is formed from the oxidized form by condensation with thiobarbituric acid. The optical density was determined at 532 nm and is dependent on the content of oxidized deoxyribose. A radical-trapping substance reacts with the hydroxyl radicals formed and reduces the formation of pink-coloured substances in this reaction mixture. In addition, the same reaction was carried out without EDTA to investigate complexing properties of the extract with Fe^2+ ions. The concentration of the samples has been again 0.3 % b.w. Table 2 Radical-trapping properties with desoxyribose in % absolute (results are averages of 2 measurements)"}, "xanthine oxidase": {"tested_on": "xanthine oxidase", "experiment": "Xanthine oxidase test (superoxide radicals detected with luminol, luminol + microperoxidase or NBT)", "settings": "sample concentration 0.3 % b.w., average of 2 measurements; for Test with xanthan oxidase, inhibition, NBT: optical density at 490 nm", "text": "In the next test, the radical-trapping properties of the test samples were investigated using xanthine oxidase as the test system. Under oxidative stress, the enzyme converts purine bases, for example, adenine or guanine, into uric acid with intermediate formation of oxygen radicals which are spontaneously decomposed into H2O2 and oxygen by Superoxid-Dismutase (SOD). These Superoxid radicals can be detected and quantitatively determined by reaction with luminol or luminol and microperoxidase and by NBT via the luminescence and the optical density at 490 nm. The luminescence yield diminishes in the presence of substances with radical-trapping properties. The concentration of the test samples has been at 0.3 % b.w. again. The results are set out in Table 3 where the inhibition is shown in % absolute (\"Luminol Test\"). Table 3 Test with xanthan oxidase in % absolute (results are averages of 2 measurements)"}}, "data": [{"substance": "conjugated linoleic acid [C2]", "values": [{"measurement": "DPPH Test, inhibition of DPPH", "setting": "[1]", "value": 18, "unit": "% absolute"}, {"measurement": "Salicylic Acid Test, inhibition", "setting": "[2]; Batch A", "value": 5, "unit": "% absolute"}, {"measurement": "Salicylic Acid Test, inhibition", "setting": "[2]; Batch B", "value": 5, "unit": "% absolute"}, {"measurement": "Radical-trapping properties with desoxyribose, Reaction with EDTA", "setting": "[3]; Batch A", "value": 1, "unit": "% absolute"}, {"measurement": "Radical-trapping properties with desoxyribose, Reaction with EDTA", "setting": "[3]; Batch B", "value": 0, "unit": "% absolute"}, {"measurement": "Radical-trapping properties with desoxyribose, Reaction without EDTA", "setting": "[3]; Batch A", "value": 0, "unit": "% absolute"}, {"measurement": "Radical-trapping properties with desoxyribose, Reaction without EDTA", "setting": "[3]; Batch B", "value": 0, "unit": "% absolute"}, {"measurement": "Test with xanthan oxidase, inhibition, Luminol + Microperoxidase", "setting": "xanthine oxidase; Batch A", "value": 5, "unit": "% absolute"}, {"measurement": "Test with xanthan oxidase, inhibition, Luminol + Microperoxidase", "setting": "xanthine oxidase; Batch B", "value": 7, "unit": "% absolute"}, {"measurement": "Test with xanthan oxidase, inhibition, Luminol", "setting": "xanthine oxidase; Batch A", "value": 3, "unit": "% absolute"}, {"measurement": "Test with xanthan oxidase, inhibition, Luminol", "setting": "xanthine oxidase; Batch B", "value": 3, "unit": "% absolute"}, {"measurement": "Test with xanthan oxidase, inhibition, NBT", "setting": "xanthine oxidase; Batch A", "value": 1, "unit": "% absolute"}, {"measurement": "Test with xanthan oxidase, inhibition, NBT", "setting": "xanthine oxidase; Batch B", "value": 1, "unit": "% absolute"}]}]}
